Reference: patent US20130017272A1, “METHOD FOR TREATING NON-SMALL CELL LUNG CANCER” (priority 2011, published 2013)
Read-outs that look alike come from different tables or passages of the source. Strand notation (5' to 3'): a small letter for the sugar, then the base; units joined by * are phosphorothioate-linked, units joined directly phosphodiester-linked; [ ] holds rarer units or linkages, { } end groups; capitals alone tell only the bases. e = 2'-O-(2-methoxyethyl) (MOE); [5mC] = 5-methylcytosine; d = 2'-deoxy (DNA)

Columns and labels:
[1] = system: cancerous human prostate, breast, ovarian, lung, renal, bladder, and melanoma cells; conditions: broad range of studies (Miyake et al. 2005); cited from earlier work
[2] = system: clusterin; conditions: broad range of studies (Miyake et al. 2005); cited from earlier work
[3] = in vivo
Description: Three doses of 640 mg custirsen are administered IV during the Loading Dose Period (Days −9 to −1). There is at least one “non-infusion” day between each administration of custirsen (i.e. every other day) during the Loading Dose Period and between the third loading dose of custirsen and Day 1 of Cycle 1. The day prior to Day 1 of Cycle 1 (Day 0) is a “no treatment” day. There are no more than 4 days between the last loading dose and Day 1 of Cycle 1. A common schedule is to give the three loading doses of custirsen on Monday, Wednesday and Friday with Day 1, Cycle 1 starting on the following Monday. Up to nine days are allowed for completing the three loading doses prior to Day 0 to account for clinic visits, weekends, and holidays. Subjects receive each dose of custirsen as a 2 hour infusion.

[4] = system: stage IIIB or IV NSCLC; test: Phase 1-2 study of weekly custirsen plus a gemcitabine/platinum-based regimen: survival by baseline serum clusterin; assay type: in vivo, human
Description: The relationship between serum clusterin levels and the duration of individual survival was evaluated during a phase 1-2 study of weekly custirsen plus a gemcitabine/platinum-based regimen in patients with stage IIIB or IV NSCLC. Not all of the patients in this study had baseline levels of clusterin measured. However, starting with N=69 subjects with measured baseline clusterin levels, fitting the Cox proportional hazards (PH) model with baseline clusterin as sole predictor gives p=0.10; the coefficient is positive, so that higher clusterin is associated with increased survival risk. Among the N=55 subjects who also had post-baseline data collected, fitting the same PH model gives p=0.05, again with positive coefficient.
A careful search for possible cutpoints, using all N=69 subjects with baseline clusterin levels, produced 71 μg/mL as a strong candidate.
Among all N=69 subjects with a baseline clusterin level, there were […] with clusterin ≦71 μg/mL (median survival time was 18.8 months), and N=26 subjects with baseline clusterin >71 μg/mL (median survival time was 10.2 months); the log-rank p-value=0.004. Removing the N=14 early discontinuers leaves N=35 subjects with baseline clusterin ≦71 μg/mL (median survival time was 28.7 months), and N=20 subjects with baseline clusterin >71 μg/mL (median survival time was 12.2 months); the log-rank p-value=0.0002.

[5] = cited from earlier work
[6] = system: NSCLC; conditions: 2nd line setting, from reports; cited from earlier work
[7] = molecular target: CYP3A4 (Homo sapiens, UniProt P08684); conditions: cited from earlier work
Sequence of CYP3A4 (P08684 whole entry): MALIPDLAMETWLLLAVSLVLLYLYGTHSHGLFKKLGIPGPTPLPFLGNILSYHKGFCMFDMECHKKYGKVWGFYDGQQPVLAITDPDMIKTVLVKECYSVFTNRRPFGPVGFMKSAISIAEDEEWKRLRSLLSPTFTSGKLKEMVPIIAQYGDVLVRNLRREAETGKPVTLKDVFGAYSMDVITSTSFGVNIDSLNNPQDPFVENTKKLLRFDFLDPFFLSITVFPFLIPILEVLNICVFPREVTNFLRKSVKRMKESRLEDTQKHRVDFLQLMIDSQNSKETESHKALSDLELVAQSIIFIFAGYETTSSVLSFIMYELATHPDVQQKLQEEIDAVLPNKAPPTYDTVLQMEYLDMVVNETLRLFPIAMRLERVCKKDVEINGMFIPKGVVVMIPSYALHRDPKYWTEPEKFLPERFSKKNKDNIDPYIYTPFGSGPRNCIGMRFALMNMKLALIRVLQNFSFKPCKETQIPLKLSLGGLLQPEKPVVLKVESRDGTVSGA

| Compound | sensitization of cancer cells to chemotherapy [1] | expression of clusterin [2] | subjects with grade 1-2 constitutional symptoms (e.g., fever and chills) [3] | median survival time ([4]; baseline clusterin >71 μg/mL, N=20, early discontinuers removed) | median survival time ([4]; baseline clusterin >71 μg/mL, N=26 of all N=69 subjects) | median survival time ([4]; baseline clusterin ≦71 μg/mL, N=35, early discontinuers removed) | median survival time ([4]; baseline clusterin ≦71 μg/mL, N=45 of all N=69 subjects) | patients with grade 4 neutropenia (<500 cells/mm^3) ([5]; 60 mg/m^2) | patients with grade 4 neutropenia (<500 cells/mm^3) ([5]; 100 mg/m^2) | patients with neutropenia (<2,000 neutrophils/mm^3) ([5]; 60-100 mg/m^2) | median PFS [6] | CYP3A4 substrate [7] |
| --- | --- | --- | --- | --- | --- | --- | --- | --- | --- | --- | --- | --- |
| custirsen: anti-clusterin antisense oligonucleotide CAGCAGCAGAGTCTTCATCAT, phosphorothioate backbone, 2′-O-methoxyethyl at nucleotides 1-4 and 18-21, 5-methylcytosines at 1, 4, 19 (antisense e[5mC]*eA*eG*e[5mC]*dA*dG*dC*dA*dG*dA*dG*dT*dC*dT*dT*dC*dA*eT*e[5mC]*eA*eT; listed as Homo sapiens) | sensitizes | potently reduces | 50-60% | 12.2 months | 10.2 months | 28.7 months | 18.8 months | – | – | – | – | – |
| CC(=O)O[C@@]12CO[C@@H]1C[C@H](O)[C@@]1(C)C(=O)[C@H](O)C3=C(C)[C@@H](OC(=O)[C@H](O)[C@@H](NC(=O)OC(C)(C)C)c4ccccc4)C[C@@](O)([C@@H](OC(=O)c4ccccc4)[C@H]21)C3(C)C [Docetaxel] | – | – | – | – | – | – | – | 75% | 85% | virtually all | about 3 months | substrate |
